Assay results as given in ChEMBL document CHEMBL4428063, “Novel Pyrimidine Toll-like Receptor 7 and 8 Dual Agonists to Treat Hepatitis B Virus” (J Med Chem, 2016).
Activity calls are given as the source filed them. The rule behind the calls is not given here.

Key:
[1] = Cmax in Sprague-Dawley rat plasma at 10 mg/kg, po; format: ADME, organism-based; set-up: dose 10 mg/kg, route oral
[2] = Intrinsic clearance in cynomolgus monkey hepatocytes at 1 uM measured after 120 mins; format: ADME, cell-based, Macaca fascicularis, Hepatocyte; conditions: 2 h
[3] = Intrinsic clearance in dog liver microsomes assessed per mg protein at 1 uM measured after 60 mins; format: ADME, Canis lupus familiaris, Microsome; conditions: read-out: CLH
[4] = Tmax in Sprague-Dawley rat liver at 10 mg/kg, po; format: ADME, organism-based
[5] = biological target: T1, Toll-like receptor 8 (Homo sapiens) (UniProt Q9NR97); assay: Agonist activity at human TLR8 expressed in HEK293 cells assessed as measured after 6 hrs by NF-kappaB luciferase reporter gene assay; format: cell-based
T1 sequence (whole entry): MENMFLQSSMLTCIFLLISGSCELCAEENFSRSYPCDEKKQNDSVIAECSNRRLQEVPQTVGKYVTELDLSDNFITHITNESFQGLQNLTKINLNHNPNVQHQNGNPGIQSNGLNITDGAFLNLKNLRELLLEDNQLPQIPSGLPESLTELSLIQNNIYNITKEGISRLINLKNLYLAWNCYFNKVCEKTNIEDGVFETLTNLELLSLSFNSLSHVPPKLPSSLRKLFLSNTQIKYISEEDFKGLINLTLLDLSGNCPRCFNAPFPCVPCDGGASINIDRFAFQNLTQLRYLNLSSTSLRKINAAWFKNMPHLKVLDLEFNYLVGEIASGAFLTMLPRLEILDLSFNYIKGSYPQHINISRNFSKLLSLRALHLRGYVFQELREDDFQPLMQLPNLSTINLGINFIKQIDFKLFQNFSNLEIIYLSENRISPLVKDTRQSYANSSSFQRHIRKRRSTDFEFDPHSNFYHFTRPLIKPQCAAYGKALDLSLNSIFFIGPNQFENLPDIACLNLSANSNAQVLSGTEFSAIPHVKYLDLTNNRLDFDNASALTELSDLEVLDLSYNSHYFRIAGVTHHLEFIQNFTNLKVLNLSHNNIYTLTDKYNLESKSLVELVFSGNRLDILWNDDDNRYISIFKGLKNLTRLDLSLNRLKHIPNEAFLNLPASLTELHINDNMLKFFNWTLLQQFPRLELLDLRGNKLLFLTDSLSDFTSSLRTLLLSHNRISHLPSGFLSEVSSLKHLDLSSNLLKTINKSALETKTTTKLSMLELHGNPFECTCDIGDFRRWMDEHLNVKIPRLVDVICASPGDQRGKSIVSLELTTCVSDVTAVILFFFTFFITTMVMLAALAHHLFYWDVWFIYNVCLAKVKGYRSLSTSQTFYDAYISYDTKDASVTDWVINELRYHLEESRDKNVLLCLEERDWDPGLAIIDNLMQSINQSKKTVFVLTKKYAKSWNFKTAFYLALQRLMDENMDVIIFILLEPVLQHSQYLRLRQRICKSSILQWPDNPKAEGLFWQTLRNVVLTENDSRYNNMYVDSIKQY

[6] = Intrinsic clearance in Sprague-Dawley rat liver microsomes assessed per mg protein at 1 uM measured after 60 mins; format: ADME, Microsome; conditions: read-out: CLH
[7] = biological target: Toll-like receptor 3 (Homo sapiens) (UniProt O15455); assay: Agonist activity at wild-type human TLR3 expressed in HEK293 cells up to 25 uM measured after 6 hrs by NF-kappaB luciferase reporter gene assay; format: cell-based
[8] = Intrinsic clearance in C57Bl/6 mouse liver microsomes assessed per mg protein at 1 uM measured after 60 mins; format: ADME, Microsome; conditions: read-out: CLH
[9] = Oral bioavailability in cynomolgus monkey at 30 mg/kg, measured after 24 hrs; format: ADME, organism-based, Macaca fascicularis; conditions: in vivo
[10] = Tmax in C57Bl/6 mouse at 1 to 50 mg/kg, po; format: ADME, organism-based; conditions: in vivo
[11] = Ratio of drug level in Sprague-Dawley rat liver to plasma at 10 mg/kg, po; format: ADME, organism-based; conditions: liver and plasma
[12] = biological target: T2, Toll-like receptor 1 (Homo sapiens) (UniProt Q15399); assay: Agonist activity at wild-type human TLR1 expressed in HEK293 cells up to 25 uM measured after 6 hrs by NF-kappaB luciferase reporter gene assay; format: cell-based
T2 sequence (whole entry): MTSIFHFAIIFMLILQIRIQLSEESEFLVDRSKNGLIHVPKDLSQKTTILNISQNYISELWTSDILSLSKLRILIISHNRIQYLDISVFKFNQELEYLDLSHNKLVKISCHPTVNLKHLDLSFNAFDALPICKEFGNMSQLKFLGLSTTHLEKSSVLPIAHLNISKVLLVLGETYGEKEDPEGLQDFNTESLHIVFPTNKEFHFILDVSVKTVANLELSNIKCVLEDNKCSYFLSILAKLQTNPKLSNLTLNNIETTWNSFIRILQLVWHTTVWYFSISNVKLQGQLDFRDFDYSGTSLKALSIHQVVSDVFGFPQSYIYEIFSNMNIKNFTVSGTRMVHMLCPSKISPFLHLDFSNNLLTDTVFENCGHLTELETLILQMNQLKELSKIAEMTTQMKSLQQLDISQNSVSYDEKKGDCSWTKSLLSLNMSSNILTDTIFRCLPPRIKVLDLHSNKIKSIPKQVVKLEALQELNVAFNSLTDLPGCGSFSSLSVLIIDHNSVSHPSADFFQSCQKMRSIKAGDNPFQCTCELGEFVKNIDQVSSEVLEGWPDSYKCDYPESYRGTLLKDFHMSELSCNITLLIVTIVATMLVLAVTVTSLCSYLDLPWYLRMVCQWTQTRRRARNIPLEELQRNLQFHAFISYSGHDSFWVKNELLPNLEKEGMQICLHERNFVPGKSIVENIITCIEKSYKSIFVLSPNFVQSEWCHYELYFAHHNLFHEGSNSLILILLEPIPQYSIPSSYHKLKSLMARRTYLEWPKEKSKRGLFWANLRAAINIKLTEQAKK

[13] = biological target: Toll-like receptor 5 (Homo sapiens) (UniProt O60602); assay: Agonist activity at wild-type human TLR5 expressed in HEK293 cells up to 25 uM measured after 6 hrs by NF-kappaB luciferase reporter gene assay; format: cell-based
[14] = Intrinsic clearance in dog hepatocytes at 1 uM measured after 120 mins; format: ADME, cell-based, Canis lupus familiaris, Hepatocyte; conditions: 2 h

Toll-like receptor 5 (Homo sapiens), sequence (O60602 whole entry): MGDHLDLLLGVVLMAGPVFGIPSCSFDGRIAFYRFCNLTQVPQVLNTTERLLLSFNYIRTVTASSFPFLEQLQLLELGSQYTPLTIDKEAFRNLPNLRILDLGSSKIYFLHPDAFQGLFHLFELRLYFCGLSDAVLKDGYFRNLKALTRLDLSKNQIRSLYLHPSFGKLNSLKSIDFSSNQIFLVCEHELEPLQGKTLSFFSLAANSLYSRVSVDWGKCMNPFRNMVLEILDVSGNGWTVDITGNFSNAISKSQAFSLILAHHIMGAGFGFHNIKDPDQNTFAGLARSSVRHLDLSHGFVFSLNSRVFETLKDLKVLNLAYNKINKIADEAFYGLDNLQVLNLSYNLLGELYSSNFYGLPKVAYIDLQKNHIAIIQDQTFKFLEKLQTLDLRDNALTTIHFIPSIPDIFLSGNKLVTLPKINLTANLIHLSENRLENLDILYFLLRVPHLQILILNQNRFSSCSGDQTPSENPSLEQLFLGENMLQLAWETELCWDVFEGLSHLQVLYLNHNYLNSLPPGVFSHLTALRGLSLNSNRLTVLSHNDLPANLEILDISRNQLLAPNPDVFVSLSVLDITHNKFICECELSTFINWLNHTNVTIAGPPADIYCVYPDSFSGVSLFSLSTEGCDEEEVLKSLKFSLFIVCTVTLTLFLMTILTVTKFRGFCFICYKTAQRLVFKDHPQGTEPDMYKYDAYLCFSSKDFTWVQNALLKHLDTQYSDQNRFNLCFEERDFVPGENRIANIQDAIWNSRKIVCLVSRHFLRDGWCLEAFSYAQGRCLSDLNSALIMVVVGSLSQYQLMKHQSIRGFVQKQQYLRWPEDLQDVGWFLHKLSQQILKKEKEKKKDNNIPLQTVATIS
Toll-like receptor 3 (Homo sapiens), sequence (O15455 whole entry): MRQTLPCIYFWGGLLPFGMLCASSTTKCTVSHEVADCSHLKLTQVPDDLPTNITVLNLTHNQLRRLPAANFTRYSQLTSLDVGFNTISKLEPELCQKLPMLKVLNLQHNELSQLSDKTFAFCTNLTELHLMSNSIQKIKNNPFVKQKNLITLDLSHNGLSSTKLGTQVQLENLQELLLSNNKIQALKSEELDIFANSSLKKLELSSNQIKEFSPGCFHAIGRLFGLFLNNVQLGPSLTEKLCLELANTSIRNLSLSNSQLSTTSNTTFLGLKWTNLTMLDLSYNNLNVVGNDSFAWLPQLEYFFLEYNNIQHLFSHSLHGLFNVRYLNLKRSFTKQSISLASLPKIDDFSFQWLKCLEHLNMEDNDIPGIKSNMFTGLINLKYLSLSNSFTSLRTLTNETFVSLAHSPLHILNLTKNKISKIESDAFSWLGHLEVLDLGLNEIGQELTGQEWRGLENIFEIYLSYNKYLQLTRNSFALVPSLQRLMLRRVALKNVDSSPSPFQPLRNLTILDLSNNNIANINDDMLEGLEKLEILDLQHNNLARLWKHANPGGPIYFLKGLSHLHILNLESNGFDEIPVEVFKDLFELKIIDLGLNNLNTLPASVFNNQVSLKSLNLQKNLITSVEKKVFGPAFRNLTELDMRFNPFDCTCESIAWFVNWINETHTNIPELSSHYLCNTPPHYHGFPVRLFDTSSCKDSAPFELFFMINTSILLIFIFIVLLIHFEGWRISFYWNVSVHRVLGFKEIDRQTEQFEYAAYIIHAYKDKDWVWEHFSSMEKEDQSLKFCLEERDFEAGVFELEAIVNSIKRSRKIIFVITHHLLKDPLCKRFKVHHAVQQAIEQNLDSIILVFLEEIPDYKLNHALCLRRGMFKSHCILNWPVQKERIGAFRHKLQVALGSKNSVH

Cmax [1]: 65 ng/mL
CLH [2]: 103 µL/min
microsomal CLint at 1 µM [3]: 7 µL/min/mg
Tmax [4]: 30 min
LED [5]: 1.6 µM
microsomal CLint at 1 µM [6]: 60 µL/min/mg
Activity [7]: inactive
microsomal CLint at 1 µM [8]: 5 µL/min/mg
bioavailability [9]: 3.9%
Tmax [10]: 30 to 60 min
Kp [11]: 14
Activity [12]: inactive
Activity [13]: inactive
CLH [14]: 99 µL/min
Structure (SMILES): CCCC[C@@H](CCO)Nc1nc(N)ncc1OC
